In patent publication US20100266503A1, “Breast Cancer Methods, Medicaments and Agents” (priority 2007, published 2010):

What was measured:
[1] = system: notch intracellular domain in MCF-7 cells; experiment: Staining for notch intracellular domain expression (surrogate marker for GS activity); assay type: cell-based; conditions: 48 hours; Gefitinib 15 μM, U0126 10 μM, PD98059 10 μM
From the text: (§1) (A) GS activity as measured by a fluorescent assay in MCF7 breast cancer cell lines and MCF10A normal cell lines, with and without treatment with the ERK1/2 inhibitor U0126. (B) Sections of MCF7 breast cancer cell lines stained for notch intracellular domain expression (as a surrogate marker for GS activity). Shown are sections of cells untreated (NO), and cells treated with oestrogen (E2), faslodex (FAS), Gefitinib (Gef), GSI1, and the ERK1/2 inhibitors U0126 (U) and. PD98059 (PD). (C) Sections of MCF10A normal cell lines stained for notch intracellular domain expression. Shown are sections of cells untreated (NO), and cells treated with Gefitinib (Gef) and PD98059 (PD).
(§2) Cancer and normal cell lines were treated with oestrogen (E2), faslodex (FAS), Gefitinib (Gef 15 μM), GSI1, and the ERK1/2 inhibitors U0126 (U) (10 μM) and PD98059 (PD) (10 μM) for 48 hours and a fluorescent assay performed to measure GS activity. The figures show relative fluorescence therefore the amount of fluorescence in the treated cells relative to the untreated minus background (these figures are corrected for background).

[2] = system: GS Activity in MDA-MB 231 cell line; conditions: 48 h vs vehicle control
Protocol: GS Activity Assay was performed on MDA-MB 231 cell line. Cells were treated with a vehicle control and a U0126 inhibitor for 48 h.

[3] = system: GS activity in MCF10A normal cell lines; conditions: 10 μM, 48 hours
From the text: as §1, §2

[4] = system: GS activity in MCF7 breast cancer cell lines
From the text: as §1, §2

| Compound | notch intracellular domain expression localized to the nucleus compared to untreated cells [1] | GS Activity [2] | increase in GS activity (relative fluorescence vs untreated) [3] | increase in GS activity (relative fluorescence vs untreated) ([4]; 10 μM, 48 hours) | increase in GS activity ([4]; breast cancer cells, summary statement) [fold] |
| --- | --- | --- | --- | --- | --- |
| C[C@]12CC[C@@H]3c4ccc(O)cc4C[C@@H](CCCCCCCCC[S+]([O-])CCCC(F)(F)C(F)(F)F)[C@H]3[C@@H]1CC[C@@H]2O (some centres unmarked) [Faslodex] | all but the Faslodex appear to increase notch intracellular domain expression | – | – | – | – |
| COc1cc2ncnc(Nc3ccc(F)c(Cl)c3)c2cc1OCCCN1CCOCC1 [Gefitinib] | appear to increase notch intracellular domain expression localized to the nucleus | – | – | – | – |
| COc1cccc(-c2cc(=O)c3ccccc3o2)c1N [PD98059] | appear to increase notch intracellular domain expression localized to the nucleus | – | – | – | – |
| N#CC(=C(/N)Sc1ccccc1N)/C(C#N)=C(\N)Sc1ccccc1N [U0126] | appear to increase notch intracellular domain expression localized to the nucleus | dose dependant increase of GS Activity | approximately 4 fold | 6-12 fold | 9 |
